From US8557839B2, “Fused ring azadecalin glucocorticoid receptor modulators” (Corcept Therapeutics, Inc., priority 2004, dated 2013)

Experiments:
glucocorticoid receptors [1] = target: T1, glucocorticoid receptors (Homo sapiens, UniProt P04150); experiment: GR functional assay using SW1353/MMTV-5 cells (dexamethasone-induced luciferase); type: cell-based; parameters: contains endogenous glucocorticoid receptors; endogenous in cells; host or cells: SW1353/MMTV-5 (human chondrosarcoma, stably carrying the pMAMneo-Luc reporter); details: read-out: GR Functional
T1 sequence (P04150 1-777): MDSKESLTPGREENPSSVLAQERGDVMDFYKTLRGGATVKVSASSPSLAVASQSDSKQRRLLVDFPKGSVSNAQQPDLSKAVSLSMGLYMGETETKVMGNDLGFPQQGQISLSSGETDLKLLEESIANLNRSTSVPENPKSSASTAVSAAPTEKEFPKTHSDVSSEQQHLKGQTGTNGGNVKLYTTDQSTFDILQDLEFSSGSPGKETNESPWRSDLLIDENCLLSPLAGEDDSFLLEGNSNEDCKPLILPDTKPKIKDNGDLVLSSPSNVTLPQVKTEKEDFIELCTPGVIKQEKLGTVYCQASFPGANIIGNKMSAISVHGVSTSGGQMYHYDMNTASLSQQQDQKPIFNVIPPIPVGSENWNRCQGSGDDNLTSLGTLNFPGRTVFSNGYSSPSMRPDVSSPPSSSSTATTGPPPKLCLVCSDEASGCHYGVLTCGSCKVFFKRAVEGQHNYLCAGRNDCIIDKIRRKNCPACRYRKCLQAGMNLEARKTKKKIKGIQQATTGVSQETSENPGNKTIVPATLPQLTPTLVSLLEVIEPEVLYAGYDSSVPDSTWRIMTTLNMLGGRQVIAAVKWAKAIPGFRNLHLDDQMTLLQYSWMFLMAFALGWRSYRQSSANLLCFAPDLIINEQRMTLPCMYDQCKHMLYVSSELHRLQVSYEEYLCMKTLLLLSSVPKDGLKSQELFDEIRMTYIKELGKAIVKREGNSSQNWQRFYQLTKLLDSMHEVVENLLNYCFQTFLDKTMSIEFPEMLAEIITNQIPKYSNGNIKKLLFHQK
Method: SW1353/MMTV-5 is an adherent human chondrosarcoma cell line that contains endogenous glucocorticoid receptors. It was transfected with a plasmid (pMAMneo-Luc) encoding firefly luciferase located behind a glucocorticoid-responsive element (GRE) derived from a viral promoter (long terminal repeat of mouse mammary tumor virus). A stable cell line SW1353/MMTV-5 was selected with geneticin, which was required to maintain this plasmid.
SW1353/MMTV-5 cells were distributed in 96-well plates and incubated in medium (without geneticin) for 24 hrs (in the absence of CO2).

glucocorticoid receptors [2] = target: T1, glucocorticoid receptors; experiment: Glucocorticoid receptor binding displacement assay with 3H-dexamethasone; parameters: This GR was a full-length steroid hormone receptor; host or cells: recombinant baculovirus-infected insect cells; details: Ki from IC50 by Cheng-Prusoff; 2.5 nM 3H-dexamethasone; read-out: GR Binding
Method: The source of the receptor was recombinant baculovirus-infected insect cells. This GR was a full-length steroid hormone receptor likely to be associated with heat-shock and other endogenous proteins.
For the Primary Screen, test compounds were tested at 1 μM in duplicate. These compounds were diluted from 10 mM stock in 100% DMSO. After dilution to 100 μM, 5 μl were added to 245 μl assay buffer to obtained 2 μM compound and 2% DMSO.
For the IC50 determinations, test compounds were tested at 6 concentrations in duplicate (concentration range depends on % inhibition binding that was obtained in the Primary Screen). Test compounds were diluted from 10 mM stock in 100% DMSO. The tested solutions were prepared at 2× final assay concentration in 2% DMSO/assay buffer.
All reagents and the assay plate were kept on ice during the addition of reagents. […] After the additions, the incubation mixture was mixed and incubated for 2.5 hrs at 4° C.
After 2.5 hrs incubation, unbound counts were removed with dextran coated charcoal (DCC) as follows: 25 μl of DCC solution (10% DCC in assay buffer) was added to all wells and mixed (total volume 225 μl). The plate was centrifuged at 4000 rpm for 10 minutes at 4° C. 75 μl of the supernatants (i.e.⅓ of total volume) was carefully pipetted into an optiplate. 200 μl of scintillation cocktail were added (Microscint-40, Packard Bioscience. B.V.). The plate was vigorously shaken for approx. 10 minutes and counted on Topcount.
The IC50 values were converted to Ki (the inhibition constant) using the Cheng-Prusoff equation.
Reagents: Assay buffer: 10 mM potassium phosphate buffer pH 7.6 containing 5 mM DTT, 10 mM sodium molybdate, 100 μM EDTA and 0.1% BSA.

Compound	Ki (glucocorticoid receptors [1])	Ki (glucocorticoid receptors [2])
C[C@]12Cc3cnn(-c4ccc(F)cc4)c3C=C1CCN(S(=O)(=O)N1CCCCC1)C2	> 100 nM	10 to 100 nM
CC(C)(C)c1ccc(S(=O)(=O)N2CCC3=Cc4c(cnn4-c4ccncc4)C[C@]3(C)C2)cc1	> 100 nM	< 10 nM
C[C@]12Cc3cnn(-c4ccc(F)cc4)c3C=C1CCN(S(=O)(=O)c1ccc(N)cc1)C2	> 100 nM	10 to 100 nM
CC(C)(C)S(=O)(=O)N1CCC2=Cc3c(cnn3-c3ccc(F)cc3)C[C@]2(C)C1	> 100 nM	> 100 nM
CC(C)n1ncc2c1C=C1CCN(S(=O)(=O)c3ccc(C(C)(C)C)cc3)C[C@@]1(CN(C)C)C2	> 100 nM	10 to 100 nM
CC(C)n1ncc2c1C=C1CCN(S(=O)(=O)c3ccc(C(C)(C)C)cc3)C[C@@]1(CN1CCCCC1)C2	10 to 100 nM	< 10 nM
Cc1ccccc1S(=O)(=O)N1CCC2=Cc3c(cnn3-c3ccc(F)cc3)C[C@]2(CN2CCOCC2)C1	10 to 100 nM	< 10 nM
O=S(=O)(c1ccccc1F)N1CCC2=Cc3c(cnn3-c3ccc(F)cc3)C[C@]2(CN2CCOCC2)C1	10 to 100 nM	< 10 nM
CC(C)(C)c1ccc(S(=O)(=O)N2CC[C@H]3Cc4c(cnn4-c4ccc(F)cc4)C[C@]3(CO)C2)cc1	> 100 nM	> 100 nM
COC[C@]12Cc3cnn(-c4ccc(F)cc4)c3C[C@@H]1CCN(S(=O)(=O)c1ccc(C(C)(C)C)cc1)C2	> 100 nM	< 10 nM
COCCOC[C@]12Cc3cnn(-c4ccc(F)cc4)c3C[C@@H]1CCN(S(=O)(=O)c1ccc(C(C)(C)C)cc1)C2	< 10 nM	< 10 nM
COCCOC[C@]12Cc3cnn(-c4ccc(F)cc4)c3C[C@@H]1CCN(S(=O)(=O)c1ccccc1)C2	10 to 100 nM	< 10 nM
COC[C@]12Cc3cnn(-c4ccc(F)cc4)c3C[C@@H]1CCN(S(=O)(=O)c1ccccc1)C2	> 100 nM	10 to 100 nM
CC(C)(C)c1ccc(S(=O)(=O)N2CCC3=Cc4c(cnn4-c4ccc(F)cc4)C[C@]3(C(=O)NCc3ccccc3)C2)cc1	> 100 nM	10 to 100 nM
CC(C)(C)c1ccc(S(=O)(=O)N2CCC3=Cc4c(cnn4-c4ccc(F)cc4)C[C@]3(C(=O)N3CCOCC3)C2)cc1	> 100 nM	10 to 100 nM
CC(C)(C)c1ccc(S(=O)(=O)N2CCC3=Cc4c(cnn4-c4ccc(F)cc4)C[C@]3(C(=O)N3CCCCC3)C2)cc1	> 100 nM	< 10 nM
CC(C)(C)c1ccc(S(=O)(=O)N2CCC3=Cc4c(cnn4-c4ccc(F)cc4)C[C@]3(C(=O)N3CCCC3)C2)cc1	10 to 100 nM	< 10 nM
CCNC(=O)[C@]12Cc3cnn(-c4ccc(F)cc4)c3C=C1CCN(S(=O)(=O)c1ccc(C(C)(C)C)cc1)C2	> 100 nM	< 10 nM
CN(C)C(=O)[C@]12Cc3cnn(-c4ccc(F)cc4)c3C=C1CCN(S(=O)(=O)c1ccc(C(C)(C)C)cc1)C2	> 100 nM	10 to 100 nM
CC(O)[C@]12Cc3cnn(-c4ccc(F)cc4)c3C=C1CCN(S(=O)(=O)c1ccc(C(C)(C)C)cc1)C2 (stereo partly shown)	10 to 100 nM	< 10 nM
CCC(O)[C@]12Cc3cnn(-c4ccc(F)cc4)c3C=C1CCN(S(=O)(=O)c1ccc(C(C)(C)C)cc1)C2 (stereo partly shown)	10 to 100 nM	< 10 nM
CC(C)(C)c1ccc(S(=O)(=O)N2CCC3=Cc4c(cnn4-c4ccc(F)cc4)C[C@]3(C(O)c3ccccc3)C2)cc1 (stereo partly shown)	> 100 nM	10 to 100 nM
CC(C)(C)c1ccc(S(=O)(=O)N2CCC3=Cc4c(cnn4-c4ccc(F)cc4)C[C@]3(C(=O)c3ccccc3)C2)cc1	< 10 nM	< 10 nM
CCCCn1ncc2c1C=C1CCN(S(=O)(=O)c3ccc(C)cc3)C[C@@]1(C(=O)OC)C2	> 100 nM	> 100 nM

Compound	Ki (glucocorticoid receptors [1])	Ki (glucocorticoid receptors [2])
COC(=O)C[C@]12Cc3cnn(-c4ccc(F)cc4)c3C=C1CCN(S(=O)(=O)c1ccc(C(C)(C)C)cc1)C2	10 to 100 nM	< 10 nM
CC(C)(C)c1ccc(S(=O)(=O)N2CCC3=Cc4c(cnn4-c4ccc(F)cc4)C[C@]3(CCO)C2)cc1	10 to 100 nM	< 10 nM
COCC[C@]12Cc3cnn(-c4ccc(F)cc4)c3C=C1CCN(S(=O)(=O)c1ccc(C(C)(C)C)cc1)C2	< 10 nM	< 10 nM
CN(C)CC[C@]12Cc3cnn(-c4ccc(F)cc4)c3C=C1CCN(S(=O)(=O)c1ccc(C(C)(C)C)cc1)C2	10 to 100 nM	10 to 100 nM
CC(C)(C)c1ccc(S(=O)(=O)N2CCC3=Cc4c(cnn4-c4ccc(F)cc4)C[C@]3(CCN3CCCC3)C2)cc1	10 to 100 nM	10 to 100 nM
CC(C)(C)c1ccc(S(=O)(=O)N2CC[C@H]3Cc4c(cnn4-c4ccc(F)cc4)C[C@]3(CN3CCOCC3)C2)cc1	10 to 100 nM	< 10 nM
O=S(=O)(c1ccccc1)N1CCC2=Cc3c(cnn3-c3ccc(F)cc3)CC2(Cc2ccc(F)cc2)C1 (stereo not shown)	10 to 100 nM	< 10 nM
Cc1ccc(S(=O)(=O)N2CCC3=Cc4c(cnn4-c4ccc(F)cc4)CC3(Cc3ccc(F)cc3)C2)cc1 (stereo not shown)	10 to 100 nM	< 10 nM
O=S(=O)(c1ccc(F)cc1)N1CCC2=Cc3c(cnn3-c3ccc(F)cc3)CC2(Cc2ccc(F)cc2)C1 (stereo not shown)	10 to 100 nM	< 10 nM
CS(=O)(=O)N1CCC2=Cc3c(cnn3-c3ccc(F)cc3)CC2(Cc2ccc(F)cc2)C1 (stereo not shown)	> 100 nM	10 to 100 nM
CC(C)S(=O)(=O)N1CCC2=Cc3c(cnn3-c3ccc(F)cc3)CC2(Cc2ccccc2)C1 (stereo not shown)	> 100 nM	> 100 nM
Cn1cnc(S(=O)(=O)N2CCC3=Cc4c(cnn4-c4ccc(F)cc4)CC3(Cc3ccc(F)cc3)C2)c1 (stereo not shown)	> 100 nM	< 10 nM
CN1CCOc2cc(S(=O)(=O)N3CCC4=Cc5c(cnn5-c5ccc(F)cc5)CC4(Cc4ccc(F)cc4)C3)ccc21 (stereo not shown)	< 10 nM	< 10 nM
O=S(=O)(c1ccc(N2CCOCC2)nc1)N1CCC2=Cc3c(cnn3-c3ccc(F)cc3)CC2(Cc2ccc(F)cc2)C1 (stereo not shown)	10 to 100 nM	< 10 nM
CC(C)(C)c1ccc(CN2CCC3=Cc4c(cnn4-c4ccc(F)cc4)CC3(Cc3ccc(F)cc3)C2)cn1 (stereo not shown)	> 100 nM	< 10 nM
CCCN1CCC2=Cc3c(cnn3-c3ccc(F)cc3)CC2(Cc2ccc(F)cc2)C1 (stereo not shown)	> 100 nM	10 to 100 nM
Fc1ccc(-n2ncc3c2C=C2CCN(Cc4c[nH]cn4)CC2(Cc2ccccc2)C3)cc1 (stereo not shown)	> 100 nM	> 100 nM
Fc1ccc(-n2ncc3c2C=C2CCN(Cc4ccncc4)CC2(Cc2ccccc2)C3)cc1 (stereo not shown)	> 100 nM	10 to 100 nM
O=C(Nc1ccccc1)N1CCC2=Cc3c(cnn3-c3ccc(F)cc3)CC2(Cc2ccc(F)cc2)C1 (stereo not shown)	10 to 100 nM	< 10 nM
CN1CCN(S(=O)(=O)N2CCC3=Cc4c(cnn4-c4ccc(F)cc4)CC3(Cc3ccc(F)cc3)C2)CC1 (stereo not shown)	> 100 nM	10 to 100 nM
O=S(=O)(N1CCCCC1)N1CCC2=Cc3c(cnn3-c3ccc(F)cc3)CC2(Cc2ccc(F)cc2)C1 (stereo not shown)	> 100 nM	10 to 100 nM
CN(C)C(=O)CN1CCC2=Cc3c(cnn3-c3ccc(F)cc3)CC2(Cc2ccccc2)C1 (stereo not shown)	> 100 nM	> 100 nM
COCCOC[C@]12Cc3cnn(C4CCCC4)c3C=C1CCN(S(=O)(=O)c1ccc(C)cc1)C2	10 to 100 nM	< 10 nM
